Measured values from ChEMBL document CHEMBL1156354, “Anti-AIDS agents. 48.(1) Anti-HIV activity of moronic acid derivatives and the new melliferone-related triterpenoid isolated from Brazilian propolis” (J Nat Prod, 2001).
In brackets after ≈: the same amount, converted by molar mass.

Experiments:
H9 = assay: Cytotoxicity against human H9 cells; assay type: cell-based
[1] = system: Human immunodeficiency virus 1; assay: Antiviral activity against HIV1 3B infected in human H9 cells assessed as inhibition of viral p24 antigen levels after 4 days by ELISA; assay type: functional, organism-based
[2] = Therapeutic index, ratio of IC50 for human H9 cells to EC50 of HIV1 3B; assay type: cell-based; conditions: for selectivity ratio: H9 cells, HIV-1 3B, read-out: Ratio IC50/EC50; for Ratio IC50/EC50: h9
[3] = Human immunodeficiency virus 1, 3B, H9, 96 h, read-out: EC50

SMILES | EC50 [1, 3] [µg/mL] | EC50 ([1]; h9) | IC50 (H9) [µg/mL] | selectivity ratio [2] | Ratio IC50/EC50 [2]
C/C(=C/CC[C@@H](C)[C@H]1CC[C@@]2(C)C3=C(CC[C@]12C)[C@@]1(C)CCC(=O)C(C)(C)[C@@H]1CC3)C(=O)O [ANWUWEIZONIC ACID] |  | Not Active | 2.14 (≈ 4.71 µM) |  | Not Active
C=C(C)[C@@H]1CC[C@]2(C(=O)O)CC[C@]3(C)[C@H](CC[C@@H]4[C@@]5(C)CCC(=O)C(C)(C)[C@@H]5CC[C@]43C)[C@@H]12 [BETUNOLIC ACID] | 0.22 (≈ 0.484 µM) |  | 1.8 (≈ 3.96 µM) | 8 | 
CC1(C)C=C2[C@H]3CC[C@@H]4[C@@]5(C)CC[C@H](O)C(C)(C)[C@@H]5CC[C@@]4(C)[C@]3(C)CC[C@@]2(C(=O)O)CC1 [MOROLIC ACID] | 2.7 (≈ 5.91 µM) |  | 22.1 (≈ 48.4 µM) | 8.17 | 
COc1cc(C=O)ccc1O [VANILLIN] |  | Not Active | > 100 |  | Not Active

Second part, led by results:

EC50 [1, 3] [µg/mL] | EC50 ([1]; h9) | SMILES | IC50 (H9) [µg/mL] | selectivity ratio [2] | Ratio IC50/EC50 [2]
1 (≈ 1.71 µM) |  | CC1(C)C=C2[C@H]3CC[C@@H]4[C@@]5(C)CC[C@H](OC(=O)CC(C)(C)C(=O)O)C(C)(C)[C@@H]5CC[C@@]4(C)[C@]3(C)CC[C@@]2(C(=O)O)CC1 | 18.1 (≈ 30.9 µM) | 18 | 
 | Not Active | CCC(=O)c1ccc(O)c(OC)c1 | 18.8 (≈ 104 µM) |  | Not Active
 | Not Active | C=C(COC(C)=O)[C@H]1Cc2cc(C(C)=O)ccc2O1 | 2.07 (≈ 7.95 µM) |  | Not Active
2.19 (≈ 11.4 µM) |  | COc1ccc(/C=C/C=O)cc1OC [3,4-DIMETHOXY CINNAMALDEHYDE] | 18.9 (≈ 98.3 µM) | 8.62 | 
 | Not Active | CC1(C)CC[C@@]23CC[C@]4(C)[C@@](C=C[C@@H]5[C@@]6(C)CCC(=O)C(C)(C)[C@@H]6CC[C@]54C)(OC2=O)[C@@H]3C1 [MELLIFERONE] | 0.205 (≈ 0.453 µM) |  | Not Active
< 0.1 |  | CC1(C)C=C2[C@H]3CC[C@@H]4[C@@]5(C)CCC(=O)C(C)(C)[C@@H]5CC[C@@]4(C)[C@]3(C)CC[C@@]2(C(=O)O)CC1 [MORONIC ACID] | 18.6 (≈ 40.9 µM) | > 186 | 
0.00289 (≈ 0.0108 µM) |  | Cc1cn([C@H]2C[C@H](N=[N+]=[N-])[C@@H](CO)O2)c(=O)[nH]c1=O [ZIDOVUDINE] |  |  | 
